# Reference: ChEMBL document CHEMBL4421722, “Inhibitors of protein prenyltransferases” (2013)
# Organism: Rattus norvegicus
# Test: Inhibition of rat recombinant geranylgeranyltransferase type I expressed in Escherichia coli assessed as residual enzyme activity for geranylgeranylation of RhoA at 50 uM incubated for 30 mins in presence of [3H]GGPP by scintillation counting assay relative to control
row,Structure (SMILES),Activity [%]
1,CCCC[C@@H]1[C@@H](Sc2ccc(OC)cc2)[C@@H](C(=O)O)[C@H](c2cccc(F)c2)N1S(=O)(=O)c1ccc(C)cc1,3.5
2,Cc1ccc([C@@H]2C[C@@H](SCCc3ccccc3)[C@H](C(=O)O)CN2S(=O)(=O)c2ccc(Cl)cc2)cc1,9.5
3,Cc1ccc([C@@H]2C[C@@H](SCc3ccc(Cl)cc3)[C@H](C(=O)O)CN2S(=O)(=O)c2ccc(Cl)cc2)cc1,3.3
4,CCCCS[C@@H]1C[C@@H](c2cccc(Br)c2)N(S(=O)(=O)c2ccc(C)cc2)C[C@H]1C(=O)O,-1.5
5,C=CCS[C@@H]1C[C@@H](c2cccc(Br)c2)N(S(=O)(=O)c2ccc(C)cc2)C[C@H]1C(=O)O,13.6
6,COc1ccc([C@@H]2C[C@@H](Sc3ccc(Cl)cc3)[C@H](C(=O)O)CN2S(=O)(=O)c2ccccc2)cc1,13.4
7,Cc1ccccc1S(=O)(=O)N1[C@@H](c2ccc(Cl)cc2)C(C(=O)O)=C[C@H]1CC1CCCC1,9.1
8,Cc1ccc([C@H]2C(C(=O)O)=CC[C@@H](c3ccc(Cl)c(Cl)c3)N2S(=O)(=O)c2ccc(C)cc2)cc1,15.6
9,Cc1ccc(S(=O)(=O)N2[C@@H](c3cccc(Cl)c3)C(C(=O)O)=CC[C@H]2c2cccc(Br)c2)cc1,7.9
10,Cc1ccc(S(=O)(=O)N2C[C@@H](C(=O)O)[C@H](SCc3ccc(Cl)cc3)C[C@H]2c2ccc(Cl)cc2)cc1,4.9
11,CCCCCC[C@@H]1[C@@H](SC2CCCC2)[C@@H](C(=O)O)[C@H](c2ccc(C#N)cc2)N1S(=O)(=O)c1ccc(C)cc1,7.4
12,Cc1ccc(S(=O)(=O)N2C[C@@H](C(=O)O)[C@H](Sc3ccc(Cl)cc3)C[C@H]2c2ccc(Cl)cc2)cc1,4.9
13,Cc1ccc([C@@H]2C[C@@H](SCc3ccc(Cl)cc3)[C@H](C(=O)O)CN2S(=O)(=O)c2ccccc2)cc1,17.2
14,CCCCS[C@@H]1C[C@@H](c2cccc(Cl)c2)N(S(=O)(=O)c2ccc(C)cc2)C[C@H]1C(=O)O,-1.2
15,C=CCS[C@H]1[C@@H](C(=O)O)[C@H](c2cccc(F)c2)N(S(=O)(=O)c2ccc(C)cc2)[C@@H]1CC1CCCC1,9.7
16,Cc1ccc(S(=O)(=O)N2C[C@@H](C(=O)O)[C@H](Sc3ccccc3)C[C@H]2c2cccc(Br)c2)cc1,2.9

# Organism: Rattus norvegicus
# Test: Inhibition of rat recombinant geranylgeranyltransferase type I expressed in Escherichia coli assessed as residual enzyme activity for geranylgeranylation of K-Ras4B at 50 uM incubated for 30 mins in presence of [3H]GGPP by scintillation counting assay relative to control
row,Structure (SMILES),Activity [%]
1,CCCC[C@@H]1[C@@H](Sc2ccc(OC)cc2)[C@@H](C(=O)O)[C@H](c2cccc(F)c2)N1S(=O)(=O)c1ccc(C)cc1,27.4
2,Cc1ccc([C@@H]2C[C@@H](SCCc3ccccc3)[C@H](C(=O)O)CN2S(=O)(=O)c2ccc(Cl)cc2)cc1,22.7 to 27
3,Cc1ccc([C@@H]2C[C@@H](SCc3ccc(Cl)cc3)[C@H](C(=O)O)CN2S(=O)(=O)c2ccc(Cl)cc2)cc1,30.8 to 31.6
4,CCCCS[C@@H]1C[C@@H](c2cccc(Br)c2)N(S(=O)(=O)c2ccc(C)cc2)C[C@H]1C(=O)O,5.9 to 9
5,C=CCS[C@@H]1C[C@@H](c2cccc(Br)c2)N(S(=O)(=O)c2ccc(C)cc2)C[C@H]1C(=O)O,29.2 to 83.6
6,COc1ccc([C@@H]2C[C@@H](Sc3ccc(Cl)cc3)[C@H](C(=O)O)CN2S(=O)(=O)c2ccccc2)cc1,88.8
7,Cc1ccccc1S(=O)(=O)N1[C@@H](c2ccc(Cl)cc2)C(C(=O)O)=C[C@H]1CC1CCCC1,23.7
8,Cc1ccc([C@H]2C(C(=O)O)=CC[C@@H](c3ccc(Cl)c(Cl)c3)N2S(=O)(=O)c2ccc(C)cc2)cc1,12.4 to 17.4
9,Cc1ccc(S(=O)(=O)N2[C@@H](c3cccc(Cl)c3)C(C(=O)O)=CC[C@H]2c2cccc(Br)c2)cc1,9.8 to 24.4
10,Cc1ccc(S(=O)(=O)N2C[C@@H](C(=O)O)[C@H](SCc3ccc(Cl)cc3)C[C@H]2c2ccc(Cl)cc2)cc1,15.5 to 18.1
11,CCCCCC[C@@H]1[C@@H](SC2CCCC2)[C@@H](C(=O)O)[C@H](c2ccc(C#N)cc2)N1S(=O)(=O)c1ccc(C)cc1,20.1
12,Cc1ccc(S(=O)(=O)N2C[C@@H](C(=O)O)[C@H](Sc3ccc(Cl)cc3)C[C@H]2c2ccc(Cl)cc2)cc1,52.1
13,Cc1ccc([C@@H]2C[C@@H](SCc3ccc(Cl)cc3)[C@H](C(=O)O)CN2S(=O)(=O)c2ccccc2)cc1,22 to 29.6
14,CCCCS[C@@H]1C[C@@H](c2cccc(Cl)c2)N(S(=O)(=O)c2ccc(C)cc2)C[C@H]1C(=O)O,8.5 to 16.7
15,C=CCS[C@H]1[C@@H](C(=O)O)[C@H](c2cccc(F)c2)N(S(=O)(=O)c2ccc(C)cc2)[C@@H]1CC1CCCC1,30.4
16,COc1cc([C@@H]2C[C@@H](SCCc3ccccc3)[C@H](C(=O)O)CN2S(=O)(=O)c2ccc(C)cc2)cc(OC)c1OC,43.5
17,Cc1ccc(S(=O)(=O)N2[C@@H](c3cccc(C)c3)C(C(=O)O)=CC[C@H]2c2ccc(C(C)C)cc2)cc1,57.1
18,CCS[C@@H]1C[C@@H](c2cccc(Br)c2)N(S(=O)(=O)c2ccc(C)cc2)C[C@H]1C(=O)O,82.7
19,Cc1ccc(S(=O)(=O)N2C[C@@H](C(=O)O)[C@H](Sc3ccc(Cl)cc3)C[C@H]2c2ccc3c(c2)OCO3)cc1,90.9
20,CCc1ccc([C@@H]2C[C@@H](Sc3ccc(C)cc3)[C@H](C(=O)O)CN2S(=O)(=O)c2ccc(C)cc2)cc1,85
21,CCCS[C@@H]1C[C@@H](c2ccccc2)N(S(=O)(=O)c2ccc(C)cc2)C[C@H]1C(=O)O,75.7
22,Cc1ccc(S(=O)(=O)N2[C@@H](c3ccc(C(C)(C)C)cc3)C(C(=O)O)=CC[C@H]2c2ccc(Cl)cc2)cc1,102
23,CC(=O)C1=CC[C@@H](c2cccc(C)c2)N(S(=O)(=O)c2ccc(C)cc2)C1,102
24,C=CCS[C@@H]1C[C@@H](c2cccc(Cl)c2)N(S(=O)(=O)c2ccc(C)cc2)C[C@H]1C(=O)O,46.3

row,Structure (SMILES),Activity [%]
1,COc1cc([C@@H]2C[C@@H](SCC(C)C)[C@H](C(=O)O)CN2S(=O)(=O)c2ccc(C)cc2)cc(OC)c1OC,98.3
2,Cc1ccc([C@@H]2C[C@@H](SC3CCCC3)[C@H](C(=O)O)CN2S(=O)(=O)c2ccccc2)cc1,100
3,Cc1ccc(S(=O)(=O)N2[C@@H](c3ccc(C(C)(C)C)cc3)C(C(=O)O)=CC[C@H]2c2cccc(F)c2)cc1,77.2
4,COc1ccc([C@@H]2CC=C(C(=O)O)[C@H](c3ccc(Cl)cc3)N2S(=O)(=O)c2ccccc2C)cc1,80
5,Cc1ccc([C@@H]2CC=C(C(=O)O)[C@H](c3ccc(C(C)(C)C)cc3)N2S(C)(=O)=O)cc1,78.2
6,Cc1ccc([C@@H]2CC=C(C(=O)O)[C@H](c3cccc(Br)c3)N2S(=O)(=O)c2ccc(C)cc2)cc1,75.6
7,Cc1ccc([C@@H]2CC=C(C(=O)O)[C@H](c3cccc(Cl)c3)N2S(C)(=O)=O)cc1,64.4
8,CCCCCS[C@@H]1C[C@@H](c2cc(OC)c(OC)c(OC)c2)N(S(=O)(=O)c2ccc(C)cc2)C[C@H]1C(=O)O,81.8
9,COC(=O)c1ccccc1S(=O)(=O)N1[C@@H](c2ccc(F)cc2)C(C(=O)O)=CC[C@H]1c1ccc(C)cc1,76.9
10,COc1ccc([C@@H]2CC=C(C(=O)O)[C@H](c3cccc(Cl)c3)N2S(=O)(=O)c2ccc(C)cc2)cc1OC,87.8
11,Cc1ccc([C@@H]2CC=C(C(=O)O)[C@H](c3ccc(Cl)cc3)N2S(=O)(=O)c2ccc(C)cc2)cc1,67.4
12,CCCS[C@@H]1C[C@@H](c2ccc(C)cc2)N(S(=O)(=O)c2ccc(C)cc2)C[C@H]1C(=O)O,69.8
13,Cc1ccc(S(=O)(=O)N2[C@@H](c3cccc(Br)c3)C(C(=O)O)=CC[C@H]2c2ccc(C(C)C)cc2)cc1,41.1
14,CCS[C@@H]1C[C@@H](c2ccc(OC)cc2)N(S(=O)(=O)c2ccc(C)cc2)C[C@H]1C(=O)O,96.3
15,COc1ccc([C@@H]2CC=C(C(=O)O)[C@H](c3ccc(Br)cc3)N2S(=O)(=O)c2ccccc2C)cc1,63.7
16,COc1cccc([C@@H]2C[C@@H](SCCC(C)C)[C@H](C(=O)O)CN2S(=O)(=O)c2ccc(C)cc2)c1,62
17,CCCS[C@@H]1C[C@@H](c2cc(OC)c(OC)c(OC)c2)N(S(=O)(=O)c2ccc(C)cc2)C[C@H]1C(=O)O,75
18,Cc1ccc([C@@H]2C[C@@H](SCc3ccccc3)[C@H](C(=O)O)CN2S(=O)(=O)c2ccccc2)cc1,47.4
19,COc1ccc([C@@H]2CC=C(C(=O)O)[C@H](c3cccc(C)c3)N2S(=O)(=O)c2ccc(C)cc2)cc1,67.3
20,CCCCCS[C@@H]1C[C@@H](c2ccc(C)cc2)N(S(=O)(=O)c2ccc(C)cc2)C[C@H]1C(=O)O,74.3
21,CCOc1ccc([C@@H]2CC=C(C(=O)O)[C@H](c3cccc(C)c3)N2S(=O)(=O)c2ccc(C)cc2)cc1,65.3
22,Cc1ccc([C@@H]2C[C@@H](SCc3ccc(C(C)(C)C)cc3)[C@H](C(=O)O)CN2S(=O)(=O)c2ccc(C)cc2)cc1,69.6
23,Cc1ccc(S(=O)(=O)N2[C@@H](c3ccc(C(C)(C)C)cc3)C(C(=O)O)=CC[C@H]2c2cccc(Cl)c2)cc1,78.8
24,Cc1ccc(S(=O)(=O)N2[C@@H](c3ccc(Br)cc3)C(C(=O)O)=CC[C@H]2c2cccc(C)c2)cc1,73.5

row,Structure (SMILES),Activity [%]
1,Cc1ccc(S(=O)(=O)N2[C@@H](c3ccc(Br)cc3)C(C(=O)O)=CC[C@H]2c2ccc(C(C)C)cc2)cc1,83.7
2,COc1cc([C@@H]2CC=C(C(C)=O)CN2S(=O)(=O)c2ccc(C)cc2)cc(OC)c1OC,92.3
3,CCCCS[C@@H]1C[C@@H](c2ccc(OC)c(OC)c2)N(S(=O)(=O)c2ccc(C)cc2)C[C@H]1C(=O)O,114
4,Cc1ccc([C@H]2C(C(=O)O)=CC[C@@H](c3ccc(C)cc3)N2S(C)(=O)=O)cc1,78
5,CCOc1ccc([C@@H]2CC=C(C(=O)O)[C@H](c3ccc(Br)cc3)N2S(=O)(=O)c2ccc(C)cc2)cc1,79.4
6,CCCS[C@@H]1C[C@@H](c2ccc(OC)cc2)N(S(=O)(=O)c2ccc(Cl)cc2)C[C@H]1C(=O)O,72.8
7,Cc1ccc([C@@H]2CC=C(C(=O)O)[C@H](c3cccc(Cl)c3)N2S(=O)(=O)c2ccc(C)cc2)cc1,69.4
8,Cc1ccc([C@@H]2C[C@@H](SC3CCCC3)[C@H](C(=O)O)CN2S(C)(=O)=O)cc1,110
9,Cc1ccc(S(=O)(=O)N2C[C@@H](C(=O)O)[C@H](SC3CCCC3)C[C@H]2c2ccc(Cl)cc2)cc1,94.7
10,COc1ccc([C@@H]2CC=C(C(=O)O)[C@H](c3cccc(F)c3)N2S(=O)(=O)c2ccccc2C)cc1,86.6
11,COc1ccc([C@@H]2CC=C(C(=O)O)[C@H](c3cccc(F)c3)N2S(=O)(=O)c2ccccc2)cc1,91.8
12,COc1ccc([C@@H]2C[C@@H](SCCC(C)C)[C@H](C(=O)O)CN2S(=O)(=O)c2ccccc2C)cc1,65.9
13,COC(=O)c1ccccc1S(=O)(=O)N1[C@@H](c2ccc(C)cc2)C(C(=O)O)=CC[C@H]1c1ccc(C)cc1,89.4
14,COc1cc([C@@H]2C[C@@H](SC3CCCC3)[C@H](C(=O)O)CN2S(=O)(=O)c2ccc(C)cc2)cc(OC)c1OC,105
15,CCc1ccc([C@@H]2CC=C(C(=O)O)[C@H](c3ccc(F)cc3)N2S(=O)(=O)c2ccc(C)cc2)cc1,55.2
16,COc1ccc([C@@H]2CC=C(C(=O)O)[C@H](c3ccc(Br)cc3)N2S(=O)(=O)c2ccc(C)cc2)cc1,72.1
17,CCCCS[C@@H]1C[C@@H](c2ccc(OC)cc2)N(S(=O)(=O)c2ccc(Cl)cc2)C[C@H]1C(=O)O,72.9
18,Cc1ccc(S(=O)(=O)N2[C@@H](c3ccc(F)cc3)C(C(=O)O)=CC[C@H]2c2ccc3c(c2)OCO3)cc1,68.2
19,CCS[C@@H]1C[C@@H](c2ccc(OC)cc2)N(S(=O)(=O)c2ccc(Cl)cc2)C[C@H]1C(=O)O,72.9
20,CCS[C@@H]1C[C@@H](c2ccc(OC)cc2)N(S(=O)(=O)c2ccccc2C)C[C@H]1C(=O)O,71.1
21,COc1ccc([C@@H]2C[C@@H](SCc3ccc(Cl)cc3)[C@H](C(=O)O)CN2S(=O)(=O)c2ccc(C)cc2)cc1,40.7
22,Cc1ccc(S(=O)(=O)N2[C@@H](c3ccc(Cl)cc3)C(C(=O)O)=CC[C@H]2c2ccccc2)cc1,69.7
